# ChEMBL document CHEMBL3046155, “Synthesis and antimicrobial activity of 7-alkoxyhesperetin derivatives” (2011)
# The source made the active and inactive calls. The rule behind the calls is not given here.
# What was measured:
# Format in all cases: functional
# Staphylococcus aureus [1] = test: Antibacterial activity against Staphylococcus aureus ATCC 25923 after 24 hr by two-fold serial dilution test; settings: ATCC 25923, 24 h
# Proteus vulgaris = test: Antibacterial activity against Proteus vulgaris ATCC 14153 after 24 hr by two-fold serial dilution test; settings: ATCC 14153, 24 h
# Escherichia coli [2] = test: Antibacterial activity against Escherichia coli ATCC 25922 after 24 hr by two-fold serial dilution test; settings: ATCC 25922, 24 h
# Bacillus subtilis [3] = test: Antibacterial activity against Bacillus subtilis ATCC 9372 after 24 hr by two-fold serial dilution test; settings: ATCC 9372, 24 h
# Staphylococcus aureus [4] = test: Antibacterial activity against Staphylococcus aureus ATCC 25923 at 400 ug/mL after 24 hr by agar well diffusion assay
# Escherichia coli [5] = test: Antibacterial activity against Escherichia coli ATCC 25922 at 400 ug/mL after 24 hr by agar well diffusion assay
# Bacillus subtilis [6] = test: Antibacterial activity against Bacillus subtilis ATCC 9372 at 400 ug/mL after 24 hr by agar well diffusion assay
MIC (Staphylococcus aureus [1]) [µg/mL],MIC (Proteus vulgaris) [µg/mL],MIC (Escherichia coli [2]) [µg/mL],MIC (Bacillus subtilis [3]) [µg/mL],Compound,diameter of the inhibition zone (DIZ) (Staphylococcus aureus [4]),diameter of the inhibition zone (DIZ) (Escherichia coli [5]),diameter of the inhibition zone (DIZ) (Bacillus subtilis [6])
100,50,200,200,COc1cc(O)c2c(c1)O[C@H](c1ccc(OC)c(O)c1)CC2=O [7-METHOXYHESPERETIN],–,–,–
25,3.13,1.56,50,CN[C@@H]1[C@H](O[C@H]2[C@H](O[C@H]3[C@H](O)[C@@H](O)[C@H](N=C(N)N)[C@@H](O)[C@@H]3N=C(N)N)O[C@@H](C)[C@]2(O)C=O)O[C@@H](CO)[C@H](O)[C@H]1O.CN[C@@H]1[C@H](O[C@H]2[C@H](O[C@H]3[C@H](O)[C@@H](O)[C@H](N=C(N)N)[C@@H](O)[C@@H]3N=C(N)N)O[C@@H](C)[C@]2(O)C=O)O[C@@H](CO)[C@H](O)[C@H]1O.O=S(=O)(O)O.O=S(=O)(O)O.O=S(=O)(O)O [STREPTOMYCIN SULFATE],–,–,–
–,100,–,200,COc1ccc([C@@H]2CC(=O)c3c(O)cc(O)cc3O2)cc1O [HESPERETIN],inactive,inactive,–
6.25,12.5,50,50,CCCCCCCCCCCCOc1cc(O)c2c(c1)O[C@H](c1ccc(OC)c(O)c1)CC2=O [7-DODECYLOXYHESPERETIN],–,–,–
–,200,–,–,COc1ccc([C@@H]2CC(=O)c3c(O)cc(O[C@@H]4O[C@H](CO[C@@H]5O[C@@H](C)[C@H](O)[C@@H](O)[C@H]5O)[C@@H](O)[C@H](O)[C@H]4O)cc3O2)cc1O [HESPERIDIN],inactive,inactive,inactive

Compound,MIC (Staphylococcus aureus [1]) [µg/mL],MIC (Proteus vulgaris) [µg/mL],MIC (Escherichia coli [2]) [µg/mL],MIC (Bacillus subtilis [3]) [µg/mL],diameter of the inhibition zone (DIZ) (Staphylococcus aureus [4]),diameter of the inhibition zone (DIZ) (Escherichia coli [5]),diameter of the inhibition zone (DIZ) (Bacillus subtilis [6])
CCCCCCCCOc1cc(O)c2c(c1)O[C@H](c1ccc(OC)c(O)c1)CC2=O [7-OCTOXYHESPERETIN],12.5,25,25,50,–,–,–
CCCCOc1cc(O)c2c(c1)O[C@H](c1ccc(OC)c(O)c1)CC2=O [7-BUTOXYHESPERETIN],25,50,100,100,–,–,–
